Measured values taken from patent US20260356826A1, “SALTS OF AMINO QUINAZOLINE DERIVATIVES” (CHIESI FARMACEUTICI S.P.A., priority 2023, published 2026).
≈ marks a conversion by molar mass, not a printed value. Entries after “also recorded” stand apart in the source; their conditions may differ. Structures can show the parent of a compound that is named as a salt. Values belong to the compound of their own block, whether it stands above or below them.

How the values were obtained:
Assay type in all cases: physicochemical
[1] = Stability of mesylate salt Form 2 on storage (UPLC/UV/MS and XRPD), open and closed conditions; settings: for Stability: one year; for XRPD pattern change: open and closed; for % area main peak: 0 days; for Stability (overall): regular and stressed storage conditions
Procedure: The samples were dissolved in solvent (water/ACN 40/60) at about 1 mg/mL and diluted at about 0.07 mg/mL.
Approximately 120 mg of mesylate salt Form 2 of Compound A according to Example 2 was stored in a properly labelled open amber glass vial covered with filter paper to simulate open conditions, and in a screw cap glass to simulate closed conditions. The samples were prepared such that a layer of powder was uniformly spread on the bottom of the vial. Approximately 70 mg of powder were weighed in hydroxypropyl methylcellulose (HPMC) capsules size 3 (Capsugel) and for each condition two capsules were stored. The samples were placed at RT in a desiccator with NaBr to reach about 60% RH and in a stability chamber to reach 75% RH at 40 °C. The stability of the mesylate salt Form 2 of Compound A was thereby tested in four distinct conditions: open condition at 25 °C/60% RH, closed condition at 25 °C/60% RH, open condition at 40 °C/75% RH, and closed condition at 40 °C/75% RH. At the time points 0, 14, 28, 56, 84, 168 and 365 days the corresponding samples were removed from the stability chambers. After conditioning at RT, the samples were analyzed by UPLC/UV/MS and XRPD. One or two extra samples were stored for every condition.

[2] = Comparative stability at 40 °C and 75% RH at open conditions (UPLC/UV and XRPD); settings: 40 °C/75% RH open; for % area main peak (LC/UV): 0 days
Procedure: In a second experiment, approximately 100 mg of compound A mesylate salt Form 2 according to Example 2, free base Form A according to Example 1 and esylate salt Form 1 according to Example 6 were stored in three open amber glass vials covered with filter paper to simulate open conditions. The samples were stored in a stability chamber at 75% RH and 40 °C to compare their stability. At the time points 0, 28, 56, 84 days the corresponding samples were removed from the stability chambers. After conditioning at RT, the samples were analyzed by UPLC/UV and XRPD.

[3] = Dissolution in Fasted State Simulated Gastric Fluid (FaSSGF), manual experiment, 37 °C; settings: for Solubility: 37 °C
Procedure: The dissolution in Fasted State Simulated Gastric Fluid (FaSSGF) of mesylate salt Form 2 of the compound A of Example 2 and esylate salt Form 1 of Example 6 in comparison with the free base Form A and with other salts was tested by means of manual experiment. The medium for simulated oral fluids was FaSSGF obtained from Biorelevant.com Ltd. The experiments were conducted for 60 minutes at 37 °C.
General preparation of salts: in a round-bottomed flask, 200 mg of compound A free base Form A according to Example 1 (0.52 mmol) were suspended in 5 ml of solvent and stirred at RT. Acetone was employed for bromide, ethanedisulfonate, malonate, sulfate, saccharinate, tosylate, orotate, besylate, hemisulfate, phosphate and tartrate salts; water was employed for chloride salt; ethyl formate was employed for maleate, oxalate, gentisicate, fumarate and mandelate salts; tetrahydrofuran was employed for camphorsulfonate and pamoate salts; isopropyl acetate was employed for 4-hydroxybenzoate and methanol for camphorate salt. The corresponding acid was added under stirring in equimolar amount (except for hemisulfate, added in 0.5 molar amount). After 1 hour the crystalline solid was isolated by filtration, washed with the corresponding solvent (2×1 ml) and dried under nitrogen for 2 hours.
The quantification of the dissolved amount was done by LC/UV system at different checkpoints up to 60 minutes. The saturation solution concentration was around 25-30 mg/ml. […] In a second experiment, the quantification was repeated with saturation solution concentration 170 mg/ml for the mesylate salt Form 2 and 100 mg/ml for the esylate salt Form 1. The results are reported in tables 8A, 8B, 8C, 8D and FIG. 28.

[4] = Formulations in 20% SBE-βCD with citrate buffer: appearance and pH
Procedure: The drug content and homogeneity of the mesylate salt Form 2 and the free base Form A of Compound A in 20% w/v SBE-PCD (Sulfobutyl-ether-β-Cyclodextrin, Captisol; CYDEX Pharmaceutical) were tested at different citrate buffer concentrations such as 0.05 M, 0.1 M, 0.5 M and 1 M, at pH 2.5. To prepare the vehicle, the proper amount of citric acid (Sigma Aldrich; CAS: 77-92-9) was dissolved in water in a volumetric flask, then the pH was increased up to 2.5 using 1M NaOH. Then water was added and brought to the final volume. SBE-PCD was weighed and added in a beaker containing the citrate buffer, then left under stirring until it was dissolved. The required volume of vehicle was added to a known amount of Compound A free base Form A or Mesylate salt Form 2, then sonicated at RT for at least 10 min. The formulation was kept under magnetic stirring for at least 10 min before analysis. The stability in terms of content uniformity and pH were evaluated for up to 8 days. The samples were kept at RT and the nominal concentration was 40 mg/ml.

[5] = 20% SBE-βCD, citrate buffer 0.05 M, nominal 40 mg/ml
[6] = 20% SBE-βCD, citrate buffer 0.1 M, nominal 40 mg/ml
[7] = 20% SBE-βCD, citrate buffer 0.5 M, nominal 40 mg/ml
[8] = 20% SBE-βCD, citrate buffer 1 M, nominal 40 mg/ml
[9] = 20% SBE-βCD, citrate buffer 0.05 M, nominal 40 mg/ml, listed as Free base Form A
[10] = 20% SBE-βCD, citrate buffer 0.1 M, nominal 40 mg/ml, listed as Free base Form A
[11] = 20% SBE-βCD, citrate buffer 0.5 M, nominal 40 mg/ml, listed as Free base Form A

XRPD pattern change ([1]; 25 °C/60% RH): no significant changes
XRPD pattern change ([1]; 40 °C/75% RH): no significant changes
% area main peak ([1]; ES+, 25 °C/60% RH closed): 91.6 % area
% area main peak ([1]; ES+, 25 °C/60% RH open): 91.6 % area
% area main peak ([1]; ES+, 40 °C/75% RH closed): 91.6 % area
% area main peak ([1]; ES+, 40 °C/75% RH open): 91.6 % area
% area main peak ([1]; ES−, 25 °C/60% RH closed): 100.0 % area
% area main peak ([1]; ES−, 25 °C/60% RH open): 100.0 % area
% area main peak ([1]; ES−, 40 °C/75% RH closed): 100.0 % area
% area main peak ([1]; ES−, 40 °C/75% RH open): 100.0 % area
% area main peak ([1]; UV, 25 °C/60% RH closed): 98.4 % area
% area main peak ([1]; UV, 25 °C/60% RH open): 98.4 % area
% area main peak ([1]; UV, 40 °C/75% RH closed): 98.4 % area
% area main peak ([1]; UV, 40 °C/75% RH open): 98.4 % area
Stability (overall) ([1]; listed as mesylate salt): stable for several months
% area main peak (LC/UV) [2]: 99.9 % area
Solubility ([3]; first experiment (saturation conc. around 25-30 mg/ml), 5 min, listed as mesylate Form 2, 5 min): 31.44 mg/mL
Solubility ([3]; first experiment, 10 min, listed as mesylate Form 2, 10 min): 31.92 mg/mL
Solubility ([3]; first experiment, 20 min, listed as mesylate Form 2, 20 min): 31.65 mg/mL
Solubility ([3]; first experiment, 40 min, listed as mesylate Form 2, 40 min): 31.16 mg/mL
Solubility ([3]; first experiment, 60 min): ≥ 25 mg/mL
Solubility ([3]; first experiment, 60 min, listed as mesylate Form 2, 60 min): 31.30 mg/mL
Solubility ([3]; second experiment (saturation conc. 170 mg/ml mesylate, 100 mg/ml esylate), 0 min, listed as mesylate Form 2, 0 min): 19.25 mg/mL
Solubility ([3]; second experiment, 15 min, listed as mesylate Form 2, 15 min): 151.67 mg/mL
Solubility ([3]; second experiment, 30 min, listed as mesylate Form 2, 30 min): 159.96 mg/mL
Solubility ([3]; second experiment, 60 min, listed as mesylate Form 2, 60 min): 169.82 mg/mL
Dissolution ([3]; first experiment, saturation conc. around 25-30 mg/ml): completely dissolved
Appearance [4, 5]: Solution
pH of formulation [4, 5]: 3.0
Appearance [4, 6]: Solution
pH of formulation [4, 6]: 3.0
Appearance [4, 7]: Solution
pH of formulation [4, 7]: 2.8
Appearance [4, 8]: Solution
pH of formulation [4, 8]: 2.8
Formulability in solution compared to free base Form A ([4]; 20% SBE-βCD, citrate buffers): better formulability in solution
Gelification during the test period ([4]; all citrate buffer concentrations, up to 8 days, RT): No gelification was observed
Appearance ([4]; all concentrations of citrate buffer): Stable solutions
SMILES: COc1cc(-c2ccc(F)cn2)cc2c(N[C@H](C)c3noc(C)n3)ncnc12 [mesylate salt Form 2, (R)-6-(5-fluoropyridin-2-yl)-8-methoxy-N-(1-(5-methyl-1,2,4-oxadiazol-3-yl)ethyl)quinazolin-4-amine]
Stability ([1]; 25 °C/60% RH closed): remained stable throughout the entire test period
Stability ([1]; 25 °C/60% RH open): remained stable throughout the entire test period
Stability ([1]; 40 °C/75% RH closed): remained stable throughout the entire test period
Stability ([1]; 40 °C/75% RH open): remained stable throughout the entire test period
Stability (overall) [1]: excellent stability for at least one year at RT; also recorded: remains stable in dry form for at least one year at different conditions
Stability ([2]; 84 days): surprisingly good stability during stressed storage
Solubility compared to free base Form A ([3]; 60 minutes): consistently higher solubility than the free base Form A during the 60 minutes time

% area main peak (LC/UV) [2]: 99.8 % area
Solubility ([3]; first experiment (saturation conc. around 25-30 mg/ml), 5 min): 6.87 mg/mL (≈ 18.1 mM)
Solubility ([3]; first experiment, 10 min): 7.01 mg/mL (≈ 18.4 mM)
Solubility ([3]; first experiment, 20 min): 6.84 mg/mL (≈ 18 mM)
Solubility ([3]; first experiment, 40 min): 6.89 mg/mL (≈ 18.1 mM)
Solubility ([3]; first experiment, 60 min): 6.89 mg/mL (≈ 18.1 mM)
Solubility ([3]; second experiment (saturation conc. 170 mg/ml mesylate, 100 mg/ml esylate), 0 min): 0.63 mg/mL (≈ 1.66 mM)
Solubility ([3]; second experiment, 15 min): 12.77 mg/mL (≈ 33.6 mM)
Solubility ([3]; second experiment, 30 min): 11.89 mg/mL (≈ 31.3 mM)
Solubility ([3]; second experiment, 60 min): 13.47 mg/mL (≈ 35.4 mM)
Appearance [4, 5]: suspension
Appearance [4, 9]: Fine suspension
pH of formulation [4, 9]: 3.1
Appearance [4, 6]: suspension
Appearance [4, 10]: Suspension
pH of formulation [4, 10]: 3.5
Appearance [4, 7]: suspension
Appearance [4, 11]: Thick suspension
pH of formulation [4, 11]: 3.2
Time of gelification ([4]; 20% SBE-βCD, citrate buffer 1 M): 24 h
Appearance [4, 8]: Solution, gel after 24 hours
pH of formulation [4, 8]: 3.2
Time of gelification ([4]; 20% SBE-βCD, citrate buffer 1 M, listed as Free base Form A): ≤ 24 h
SMILES: COc1cc(-c2ccc(F)cn2)cc2c(N[C@H](C)c3noc(C)n3)ncnc12 [free base Form A, (R)-6-(5-fluoropyridin-2-yl)-8-methoxy-N-(1-(5-methyl-1,2,4-oxadiazol-3-yl)ethyl)quinazolin-4-amine]
